GI50 and TGI data for 15 compounds are collected here from PubChem BioAssay (NCI).

Several values for one entry are separate records, joined by “and”; a condition that tells them apart may be missing. Equal entries are not always repeated.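 96-well plates; 48 h exposure; 5 concentrations. Endpoints by linear interpolation between flanking doses. Not reached: highest tested concentration assigned. GI50 marks 50% less growth. TGI is the concentration that stops growth completely.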 Where only a bound is given, the exact number is not on record here.

One experiment concerns A549 NSCLC. The experiment is described as follows: NCI-60 cell line screen, 48 h.
Consider `CC(=O)Oc1ccccc1C(=O)Nc1ncc([N+](=O)[O-])s1`, for which the GI50 was 2.94 µM and the TGI was greater than 100 µM.
The like results for `CCN(Cc1ccccc1C)c1ccc(CO)c(Cl)c1` were, in that order, 6.63 µM and 27.9 µM.
For `O=C(O)CC(NC(=O)CP(=O)(O)O)C(=O)O` (centres undefined), in that order: 95.7 µM and 4250 µM.
As to `COC(=O)[C@@H](C)C[C@H](Cc1ccccc1)NC(=O)c1csc([C@@H](C[C@H](C(C)C)N(C)C(=O)[C@@H](NC(=O)[C@H]2CCCCN2C)C2CCCCC2)OC(C)=O)n1`, the GI50 is 0.0022 µM and 0.0025 µM; the TGI is greater than 25 µM.
With `NC(=O)OCCn1cc(-c2nc(-c3c[nH]c4ncccc34)cs2)c2ccccc21`, the GI50 is 2.34 µM and the TGI was determined as 23 µM.
The like results for `Cn1cc(C2=C(c3cccc(Br)c3)C(=O)NC2=O)c2ccccc21` were, in that order, 11.1 µM and greater than 25 µM.
For `COc1ccc(-c2ccc(-c3ccc(C(=N)N)s3)s2)cc1`, in that order: 0.195 µM and 0.393 µM.
Compound `OCc1ccn2c1[C@@H](O)CC2` returned a TGI greater than 100 µM.
Regarding `Cc1[nH]c(/C=C2\C(=O)Nc3ccccc32)c(C)c1CCC(=O)O`, the GI50 was 24.3 µM and the TGI was greater than 100 µM.
As to `O=C(c1ccc(/C=C/c2n[nH]c3ccccc23)cc1)N1CCNCC1`, the GI50 is 2.95 µM and 2.57 µM; the TGI is > 10 µM and 39.4 µM.
On to `CCOC(=O)c1c(NC(=O)c2cccc(C(F)(F)F)c2)sc2c(CN(C)C)c(O)ccc12`, for which the GI50 is 3.3 µM and the TGI stood at 12.7 µM.
On to `O=C(Nc1ccc(-n2ccc3c(NC(=O)c4ccccc4)nccc32)cc1)Nc1ccc(Cl)c(Cl)c1`, for which the GI50 was 1.01 µM and the TGI was 2.57 µM.
For `Cc1cc(C)c(NC(=O)c2sc3nc4c(cc3c2N)CN(Cc2ccccc2)CC4)c(C)c1`, in that order: 4.11 µM and greater than 100 µM.
In the case of `O=C1NC(=NCCc2cccc(Cl)c2)S/C1=C\c1ccc2ncccc2c1`, the GI50 is greater than 25 µM and the TGI is greater than 25 µM.
On to `C=C1C(=O)O[C@H]2[C@H]1CC/C(COC(=O)/C=C\C(=O)NCc1ccc(Cn3c(=O)sn(CCCC)c3=O)cc1)=C\CC[C@@]1(C)O[C@@H]21`, for which the GI50 is 1.56 µM and the TGI worked out at 4.16 µM.

The subject of a further experiment is NCI-H226 lung. Kind of experiment: NCI-60 cell line screen, 48 h.
For the compound `CC(=O)Oc1ccccc1C(=O)Nc1ncc([N+](=O)[O-])s1`, the GI50 is 2.62 µM; the TGI was 8.7 µM and 36.7 µM.
Consider `CCN(Cc1ccccc1C)c1ccc(CO)c(Cl)c1`, for which the GI50 is 0.0375 µM and the TGI was determined as 0.201 µM.
`O=C(O)CC(NC(=O)CP(=O)(O)O)C(=O)O` (centres undefined) registered a TGI of 7210 µM.
On to `COC(=O)[C@@H](C)C[C@H](Cc1ccccc1)NC(=O)c1csc([C@@H](C[C@H](C(C)C)N(C)C(=O)[C@@H](NC(=O)[C@H]2CCCCN2C)C2CCCCC2)OC(C)=O)n1`, for which the GI50 was 0.0025 µM and the TGI is greater than 25 µM.
Turning to `NC(=O)OCCn1cc(-c2nc(-c3c[nH]c4ncccc34)cs2)c2ccccc21`, the GI50 is 1.68 µM and the TGI was found to be 12.5 µM.
For `Cn1cc(C2=C(c3cccc(Br)c3)C(=O)NC2=O)c2ccccc21`, the GI50 was 10.4 µM and the TGI is greater than 25 µM.
For `COc1ccc(-c2ccc(-c3ccc(C(=N)N)s3)s2)cc1`, in that order: 2.06 µM and 5.15 µM.
On to `OCc1ccn2c1[C@@H](O)CC2`, for which the TGI is greater than 100 µM.
Consider `Cc1[nH]c(/C=C2\C(=O)Nc3ccccc32)c(C)c1CCC(=O)O`, for which the GI50 is 15.2 µM and the TGI was found to be 42.6 µM.
`O=C(c1ccc(/C=C/c2n[nH]c3ccccc23)cc1)N1CCNCC1`: the GI50 is > 10 µM and 1.84 µM; the TGI is > 10 µM and 8.66 µM.
In the case of `CCOC(=O)c1c(NC(=O)c2cccc(C(F)(F)F)c2)sc2c(CN(C)C)c(O)ccc12`, the GI50 is 16 µM and the TGI was 36.2 µM.
For `O=C(Nc1ccc(-n2ccc3c(NC(=O)c4ccccc4)nccc32)cc1)Nc1ccc(Cl)c(Cl)c1`, in that order: 15.9 µM and 97.7 µM.
In the case of `Cc1cc(C)c(NC(=O)c2sc3nc4c(cc3c2N)CN(Cc2ccccc2)CC4)c(C)c1`, the GI50 is 4.69 µM and the TGI was greater than 100 µM.
For `O=C1NC(=NCCc2cccc(Cl)c2)S/C1=C\c1ccc2ncccc2c1`, in that order: greater than 25 µM and greater than 25 µM.
For `C=C1C(=O)O[C@H]2[C@H]1CC/C(COC(=O)/C=C\C(=O)NCc1ccc(Cn3c(=O)sn(CCCC)c3=O)cc1)=C\CC[C@@]1(C)O[C@@H]21`, in that order: 1.58 µM and 3.39 µM.

The next experiment deals with TK-10 renal. The experiment is described as follows: NCI-60 cell line screen, 48 h.
For the compound `CC(=O)Oc1ccccc1C(=O)Nc1ncc([N+](=O)[O-])s1`, the GI50 is 3.75 µM; the TGI was 10.3 µM and > 100 µM.
As to `CCN(Cc1ccccc1C)c1ccc(CO)c(Cl)c1`, the GI50 was 0.0944 µM and the TGI worked out at 0.863 µM.
Consider `O=C(O)CC(NC(=O)CP(=O)(O)O)C(=O)O` (centres undefined), for which the TGI is greater than 10000 µM.
As for `COC(=O)[C@@H](C)C[C@H](Cc1ccccc1)NC(=O)c1csc([C@@H](C[C@H](C(C)C)N(C)C(=O)[C@@H](NC(=O)[C@H]2CCCCN2C)C2CCCCC2)OC(C)=O)n1`, the GI50 was 0.0181 µM and 0.0025 µM; the TGI is greater than 25 µM.
`NC(=O)OCCn1cc(-c2nc(-c3c[nH]c4ncccc34)cs2)c2ccccc21`: the GI50 is 2.24 µM and the TGI came to 7.66 µM.
For `Cn1cc(C2=C(c3cccc(Br)c3)C(=O)NC2=O)c2ccccc21`, in that order: greater than 18.6 µM and greater than 25 µM.
For `COc1ccc(-c2ccc(-c3ccc(C(=N)N)s3)s2)cc1`, in that order: 0.175 µM and 0.337 µM.
In the case of `OCc1ccn2c1[C@@H](O)CC2`, the TGI was greater than 100 µM.
On to `Cc1[nH]c(/C=C2\C(=O)Nc3ccccc32)c(C)c1CCC(=O)O`, for which the GI50 is 35 µM and the TGI is greater than 100 µM.
Consider `O=C(c1ccc(/C=C/c2n[nH]c3ccccc23)cc1)N1CCNCC1`, for which the GI50 was > 10 µM and 5.29 µM; the TGI is > 10 µM and 20.2 µM.
On to `CCOC(=O)c1c(NC(=O)c2cccc(C(F)(F)F)c2)sc2c(CN(C)C)c(O)ccc12`, for which the GI50 was 4.25 µM and the TGI is 15.8 µM.
For `O=C(Nc1ccc(-n2ccc3c(NC(=O)c4ccccc4)nccc32)cc1)Nc1ccc(Cl)c(Cl)c1`, in that order: 1.82 µM and 5.29 µM.
In the case of `Cc1cc(C)c(NC(=O)c2sc3nc4c(cc3c2N)CN(Cc2ccccc2)CC4)c(C)c1`, the GI50 is 5.06 µM and the TGI is greater than 100 µM.
For `O=C1NC(=NCCc2cccc(Cl)c2)S/C1=C\c1ccc2ncccc2c1`, the GI50 was greater than 25 µM and the TGI was greater than 25 µM.
As for `C=C1C(=O)O[C@H]2[C@H]1CC/C(COC(=O)/C=C\C(=O)NCc1ccc(Cn3c(=O)sn(CCCC)c3=O)cc1)=C\CC[C@@]1(C)O[C@@H]21`, the GI50 is 0.61 µM and the TGI amounted to 1.78 µM.

In another experiment the test system is HCC-2998 colon. Kind of experiment: NCI-60 cell line screen, 48 h.
`CC(=O)Oc1ccccc1C(=O)Nc1ncc([N+](=O)[O-])s1`: the GI50 was 2.03 µM; the TGI is 13.9 µM and > 100 µM.
On to `CCN(Cc1ccccc1C)c1ccc(CO)c(Cl)c1`, for which the GI50 is 14.4 µM and the TGI was found to be 30.6 µM.
In turn, `O=C(O)CC(NC(=O)CP(=O)(O)O)C(=O)O` (centres undefined) showed a TGI greater than 10000 µM.
As for `COC(=O)[C@@H](C)C[C@H](Cc1ccccc1)NC(=O)c1csc([C@@H](C[C@H](C(C)C)N(C)C(=O)[C@@H](NC(=O)[C@H]2CCCCN2C)C2CCCCC2)OC(C)=O)n1`, the GI50 was 0.000455 µM and 0.0025 µM; the TGI was greater than 25 µM.
With `NC(=O)OCCn1cc(-c2nc(-c3c[nH]c4ncccc34)cs2)c2ccccc21`, the GI50 is 1.99 µM and the TGI is 6.54 µM.
Consider `Cn1cc(C2=C(c3cccc(Br)c3)C(=O)NC2=O)c2ccccc21`, for which the GI50 is greater than 16 µM and the TGI was greater than 25 µM.
The like results for `COc1ccc(-c2ccc(-c3ccc(C(=N)N)s3)s2)cc1` were, in that order, 0.273 µM and 0.699 µM.
`OCc1ccn2c1[C@@H](O)CC2` registered a TGI greater than 100 µM.
Still for that read-out and setting: as for `Cc1[nH]c(/C=C2\C(=O)Nc3ccccc32)c(C)c1CCC(=O)O`, the figure is greater than 100 µM.
In the case of `O=C(c1ccc(/C=C/c2n[nH]c3ccccc23)cc1)N1CCNCC1`, the GI50 was > 10 µM and 12.1 µM; the TGI is > 10 µM and 34.1 µM.
As to `CCOC(=O)c1c(NC(=O)c2cccc(C(F)(F)F)c2)sc2c(CN(C)C)c(O)ccc12`, the GI50 was 1.77 µM and the TGI is 3.77 µM.
For `O=C(Nc1ccc(-n2ccc3c(NC(=O)c4ccccc4)nccc32)cc1)Nc1ccc(Cl)c(Cl)c1`, in that order: 1.47 µM and 3.65 µM.
For `Cc1cc(C)c(NC(=O)c2sc3nc4c(cc3c2N)CN(Cc2ccccc2)CC4)c(C)c1`, in that order: 5.33 µM and 38.4 µM.
For `O=C1NC(=NCCc2cccc(Cl)c2)S/C1=C\c1ccc2ncccc2c1`, in that order: greater than 25 µM and greater than 25 µM.
For the compound `C=C1C(=O)O[C@H]2[C@H]1CC/C(COC(=O)/C=C\C(=O)NCc1ccc(Cn3c(=O)sn(CCCC)c3=O)cc1)=C\CC[C@@]1(C)O[C@@H]21`, the GI50 is 1.64 µM and the TGI came to 3.19 µM.

The test system of a further experiment is DU-145 prostate. Kind of experiment: NCI-60 cell line screen, 48 h.
`CC(=O)Oc1ccccc1C(=O)Nc1ncc([N+](=O)[O-])s1`: the GI50 is 4.51 µM and the TGI was greater than 100 µM.
For `CCN(Cc1ccccc1C)c1ccc(CO)c(Cl)c1`, in that order: 16.5 µM and 35.4 µM.
For `O=C(O)CC(NC(=O)CP(=O)(O)O)C(=O)O` (centres undefined), the TGI was greater than 10000 µM.
For `COC(=O)[C@@H](C)C[C@H](Cc1ccccc1)NC(=O)c1csc([C@@H](C[C@H](C(C)C)N(C)C(=O)[C@@H](NC(=O)[C@H]2CCCCN2C)C2CCCCC2)OC(C)=O)n1`, the GI50 is 0.000291 µM and 0.0025 µM.
As for `NC(=O)OCCn1cc(-c2nc(-c3c[nH]c4ncccc34)cs2)c2ccccc21`, the GI50 was 3.07 µM and the TGI was found to be 26.1 µM.
For `Cn1cc(C2=C(c3cccc(Br)c3)C(=O)NC2=O)c2ccccc21`, the GI50 was greater than 25 µM and the TGI is greater than 25 µM.
With `COc1ccc(-c2ccc(-c3ccc(C(=N)N)s3)s2)cc1`, the GI50 was 0.193 µM and the TGI turned out to be 0.357 µM.
`OCc1ccn2c1[C@@H](O)CC2` had a TGI greater than 100 µM.
As to `Cc1[nH]c(/C=C2\C(=O)Nc3ccccc32)c(C)c1CCC(=O)O`, the GI50 is 35.4 µM and the TGI was greater than 100 µM.
Turning to `O=C(c1ccc(/C=C/c2n[nH]c3ccccc23)cc1)N1CCNCC1`, the GI50 was 5.76 µM and 4.15 µM; the TGI was > 10 µM and 27.5 µM.
Regarding `CCOC(=O)c1c(NC(=O)c2cccc(C(F)(F)F)c2)sc2c(CN(C)C)c(O)ccc12`, the GI50 is 5.82 µM and the TGI came to 17.9 µM.
The like results for `O=C(Nc1ccc(-n2ccc3c(NC(=O)c4ccccc4)nccc32)cc1)Nc1ccc(Cl)c(Cl)c1` were, in that order, 1.57 µM and 3.92 µM.
For `Cc1cc(C)c(NC(=O)c2sc3nc4c(cc3c2N)CN(Cc2ccccc2)CC4)c(C)c1`, the GI50 was 2.62 µM and the TGI stood at 7.65 µM.
The like results for `O=C1NC(=NCCc2cccc(Cl)c2)S/C1=C\c1ccc2ncccc2c1` were, in that order, greater than 25 µM and greater than 25 µM.
For `C=C1C(=O)O[C@H]2[C@H]1CC/C(COC(=O)/C=C\C(=O)NCc1ccc(Cn3c(=O)sn(CCCC)c3=O)cc1)=C\CC[C@@]1(C)O[C@@H]21`, in that order: 0.854 µM and 2.16 µM.
